Measurements as given in patent US12723063B2, “GIPR-agonist compounds” (Eli Lilly and Company, priority 2019, dated 2026).
*1 amine or outer side, *2 acyl side, *3 side chain or, on linkers, in order; H or OH if unused. Where a SMILES comes first, the peptide text is derived from it. Side-chain parts run from the residue outwards. [ ]: non-standard residue; d: D form. The star is where a group is joined. C20 diacid = O=C(O)CCCCCCCCCCCCCCCCCCC(=O)*; αMePhe(2-F) = C[C@](N)(Cc1ccccc1F)C(=O)O; γGlu = O=C(O)[C@H](CCC(=O)[*:2])N[*:1]; αMeF = C[C@](N)(Cc1ccccc1)C(=O)O; 4Pal = N[C@@H](Cc1ccncc1)C(=O)O; αMeL = CC(C)C[C@](C)(N)C(=O)O; AEEA = NCCOCCOCC(=O)O; Aib = CC(C)(N)C(=O)O

Experiments:
Experiment in all cases: cAMP functional assay (HTRF) in HEK293 cells in presence of 0.1% casein
Assay type in all cases: cell-based
[1] = target: T1, human GLP-1 receptor (GLP-1R) (Homo sapiens, UniProt P43220); conditions: HEK293 cells expressing human GLP-1R, geometric mean, read-out: hGLP1R cAMP Rel EC50 nM (SEM, n)
T1 construct: expressed in transfected cells; host or cells: HEK293

[2] = target: T2, human glucagon receptor (GcgR) (Homo sapiens, UniProt P47871); conditions: HEK293 cells expressing human GcgR, geometric mean, read-out: hGcgR cAMP Rel EC50 nM (SEM, n)
T2 construct: expressed in transfected cells; host or cells: HEK293

[3] = target: T3, human glucose-dependent insulinotropic peptide receptor (GIPR) (Homo sapiens, UniProt P48546); conditions: HEK293 cells expressing human GIPR, geometric mean, read-out: hGIPR cAMP Rel EC50 nM (SEM, n)
T3 construct: expressed in transfected cells; host or cells: HEK293
T3 sequence (P48546 22-466): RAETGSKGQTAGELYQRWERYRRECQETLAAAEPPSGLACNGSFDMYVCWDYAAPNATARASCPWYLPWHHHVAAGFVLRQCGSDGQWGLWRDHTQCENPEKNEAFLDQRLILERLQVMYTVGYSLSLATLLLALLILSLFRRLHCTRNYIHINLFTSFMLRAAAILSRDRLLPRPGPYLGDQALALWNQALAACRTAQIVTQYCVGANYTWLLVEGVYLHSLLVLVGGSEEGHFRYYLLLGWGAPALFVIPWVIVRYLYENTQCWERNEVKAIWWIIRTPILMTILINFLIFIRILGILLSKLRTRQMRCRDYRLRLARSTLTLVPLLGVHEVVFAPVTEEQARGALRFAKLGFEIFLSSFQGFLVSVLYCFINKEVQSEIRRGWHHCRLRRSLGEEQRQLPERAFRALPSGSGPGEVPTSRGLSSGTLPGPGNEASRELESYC

T1 sequence (P43220 24-463): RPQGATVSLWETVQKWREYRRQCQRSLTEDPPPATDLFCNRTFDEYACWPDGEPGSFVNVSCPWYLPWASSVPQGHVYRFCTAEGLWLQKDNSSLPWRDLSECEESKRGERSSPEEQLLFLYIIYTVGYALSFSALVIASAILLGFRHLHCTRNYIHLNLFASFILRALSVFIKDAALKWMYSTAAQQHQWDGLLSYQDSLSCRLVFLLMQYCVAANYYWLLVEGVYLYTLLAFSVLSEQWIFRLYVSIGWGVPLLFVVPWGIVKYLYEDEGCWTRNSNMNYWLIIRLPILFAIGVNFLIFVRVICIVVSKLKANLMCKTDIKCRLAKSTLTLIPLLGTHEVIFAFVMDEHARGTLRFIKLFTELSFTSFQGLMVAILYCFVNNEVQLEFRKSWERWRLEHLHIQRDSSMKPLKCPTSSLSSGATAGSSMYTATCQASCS
T2 sequence (P47871 26-477): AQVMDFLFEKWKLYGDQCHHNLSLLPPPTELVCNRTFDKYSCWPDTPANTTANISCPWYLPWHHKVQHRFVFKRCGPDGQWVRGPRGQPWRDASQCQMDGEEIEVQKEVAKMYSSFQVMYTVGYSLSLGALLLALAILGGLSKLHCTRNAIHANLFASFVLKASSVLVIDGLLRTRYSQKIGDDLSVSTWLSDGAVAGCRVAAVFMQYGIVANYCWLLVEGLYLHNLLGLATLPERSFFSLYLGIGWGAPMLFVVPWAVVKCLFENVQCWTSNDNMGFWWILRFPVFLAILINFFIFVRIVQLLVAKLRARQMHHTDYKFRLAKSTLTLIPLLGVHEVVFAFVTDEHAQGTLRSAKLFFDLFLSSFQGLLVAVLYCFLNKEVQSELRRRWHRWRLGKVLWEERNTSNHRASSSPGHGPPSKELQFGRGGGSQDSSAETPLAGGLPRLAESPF

CC[C@H](C)[C@H](NC(=O)[C@H](CO)NC(=O)[C@H](Cc1ccc(O)cc1)NC(=O)[C@H](CC(=O)O)NC(=O)[C@H](CO)NC(=O)[C@@H](NC(=O)[C@](C)(Cc1ccccc1)NC(=O)[C@@H](NC(=O)CNC(=O)[C@H](CCC(=O)O)NC(=O)C(C)(C)NC(=O)[C@@H](N)Cc1ccc(O)cc1)[C@@H](C)O)[C@@H](C)CC)C(=O)N[C@@H](C)C(=O)N[C@@H](CC(C)C)C(=O)N[C@@H](CC(=O)O)C(=O)N[C@@H](CCCCN)C(=O)N[C@@H](CCCCNC(=O)COCCOCCNC(=O)COCCOCCNC(=O)CC[C@H](NC(=O)CCCCCCCCCCCCCCCCCCC(=O)O)C(=O)O)C(=O)N[C@@H](Cc1c[nH]cn1)C(=O)N[C@@H](CCC(N)=O)C(=O)NC(C)(C)C(=O)N[C@@H](CC(=O)O)C(=O)N[C@@H](Cc1ccccc1)C(=O)N[C@H](C(=O)N[C@@H](CCC(=O)O)C(=O)N[C@@H](Cc1ccncc1)C(=O)N[C@@H](CC(C)C)C(=O)N[C@@H](CC(C)C)C(=O)N[C@@H](CCC(=O)O)C(=O)N[C@@H](CCC(N)=O)C(=O)NCC(=O)N1CCC[C@H]1C(=O)N[C@@H](CO)C(=O)N[C@@H](CO)C(=O)NCC(=O)N[C@@H](C)C(=O)N1CCC[C@H]1C(=O)N1CCC[C@H]1C(=O)N1CCC[C@H]1C(=O)N[C@@H](CO)C(N)=O)C(C)C [Example 42] (H-Y[Aib]EGT[αMeF]ISDYSIALDKK([AEEA-AEEA-γGlu-C20 diacid])HQ[Aib]DFVE[4Pal]LLEQGPSSGAPPPS-NH2)
EC50 [1]: 815 nM
EC50 [2]: > 5000 nM
EC50 [3]: 0.0091 nM

CC[C@H](C)[C@H](NC(=O)[C@H](Cc1ccccc1)NC(=O)[C@@H](NC(=O)CNC(=O)[C@H](CCC(=O)O)NC(=O)C(C)(C)NC(=O)[C@@H](N)Cc1ccc(O)cc1)[C@@H](C)O)C(=O)N[C@@H](CO)C(=O)N[C@@H](CC(=O)O)C(=O)N[C@@H](Cc1ccc(O)cc1)C(=O)N[C@@H](CO)C(=O)N[C@H](C(=O)N[C@@](C)(CC(C)C)C(=O)N[C@@H](CC(C)C)C(=O)N[C@@H](CC(=O)O)C(=O)N[C@@H](CCCCN)C(=O)N[C@@H](CCCCNC(=O)COCCOCCNC(=O)COCCOCCNC(=O)CC[C@H](NC(=O)CCCCCCCCCCCCCCCCCCC(=O)O)C(=O)O)C(=O)N[C@@H](Cc1c[nH]cn1)C(=O)N[C@@H](CCC(N)=O)C(=O)NC(C)(C)C(=O)N[C@@H](CC(=O)O)C(=O)N[C@@H](Cc1ccccc1)C(=O)N[C@H](C(=O)N[C@@H](CCC(=O)O)C(=O)N[C@@H](Cc1ccncc1)C(=O)N[C@@H](CC(C)C)C(=O)N[C@@H](CC(C)C)C(=O)N[C@@H](CCC(=O)O)C(=O)NCC(=O)NCC(=O)N1CCC[C@H]1C(=O)N[C@@H](CO)C(=O)N[C@@H](CO)C(=O)NCC(=O)N[C@@H](C)C(=O)N1CCC[C@H]1C(=O)N1CCC[C@H]1C(=O)N1CCC[C@H]1C(=O)N[C@@H](CO)C(N)=O)C(C)C)[C@@H](C)CC [Example 47] (H-Y[Aib]EGTFISDYSI[αMeL]LDKK([AEEA-AEEA-γGlu-C20 diacid])HQ[Aib]DFVE[4Pal]LLEGGPSSGAPPPS-NH2)
EC50 [1]: > 5000 nM
EC50 [2]: 757 nM
EC50 [3]: 0.0234 nM

CC[C@H](C)[C@H](NC(=O)[C@H](Cc1ccccc1)NC(=O)[C@@H](NC(=O)CNC(=O)[C@H](CCC(=O)O)NC(=O)C(C)(C)NC(=O)[C@@H](N)Cc1ccc(O)cc1)[C@@H](C)O)C(=O)N[C@@H](CO)C(=O)N[C@@H](CC(=O)O)C(=O)N[C@@H](Cc1ccc(O)cc1)C(=O)N[C@@H](CO)C(=O)N[C@H](C(=O)N[C@@](C)(CC(C)C)C(=O)N[C@@H](CC(C)C)C(=O)N[C@@H](CC(=O)O)C(=O)N[C@@H](CCCCN)C(=O)N[C@@H](CCCCNC(=O)COCCOCCNC(=O)COCCOCCNC(=O)CC[C@H](NC(=O)CCCCCCCCCCCCCCCCCCC(=O)O)C(=O)O)C(=O)N[C@@H](Cc1c[nH]cn1)C(=O)N[C@@H](CCC(N)=O)C(=O)NC(C)(C)C(=O)N[C@@H](CC(=O)O)C(=O)N[C@@](C)(Cc1ccccc1)C(=O)N[C@H](C(=O)N[C@@H](CCC(=O)O)C(=O)N[C@@H](Cc1ccncc1)C(=O)N[C@@H](CC(C)C)C(=O)N[C@@H](CC(C)C)C(=O)N[C@@H](C)C(=O)NCC(=O)NCC(=O)N1CCC[C@H]1C(=O)N[C@@H](CO)C(=O)N[C@@H](CO)C(=O)NCC(=O)N[C@@H](C)C(=O)N1CCC[C@H]1C(=O)N1CCC[C@H]1C(=O)N1CCC[C@H]1C(=O)N[C@@H](CO)C(N)=O)C(C)C)[C@@H](C)CC [Example 56]
EC50 [1]: > 5000 nM
EC50 [2]: > 5000 nM
EC50 [3]: 0.0169 nM

CC[C@H](C)[C@H](NC(=O)[C@H](CO)NC(=O)[C@H](Cc1ccc(O)cc1)NC(=O)[C@H](CC(=O)O)NC(=O)[C@H](CO)NC(=O)[C@@H](NC(=O)[C@](C)(Cc1ccccc1F)NC(=O)[C@@H](NC(=O)CNC(=O)[C@H](CCC(=O)O)NC(=O)C(C)(C)NC(=O)[C@@H](N)Cc1ccc(O)cc1)[C@@H](C)O)[C@@H](C)CC)C(=O)N[C@@](C)(CC(C)C)C(=O)N[C@@H](CC(C)C)C(=O)N[C@@H](CC(=O)O)C(=O)N[C@@H](CCCCN)C(=O)N[C@@H](CCCCNC(=O)COCCOCCNC(=O)COCCOCCNC(=O)CC[C@H](NC(=O)CCCCCCCCCCCCCCCCCCC(=O)O)C(=O)O)C(=O)N[C@@H](Cc1c[nH]cn1)C(=O)N[C@@H](CCC(N)=O)C(=O)NC(C)(C)C(=O)N[C@@H](CC(=O)O)C(=O)N[C@@H](Cc1ccccc1)C(=O)N[C@H](C(=O)N[C@@H](CCC(=O)O)C(=O)N[C@@H](Cc1ccncc1)C(=O)N[C@@H](CC(C)C)C(=O)N[C@@H](CC(C)C)C(=O)N[C@@H](C)C(=O)NCC(=O)NCC(=O)N1CCC[C@H]1C(=O)N[C@@H](CO)C(=O)N[C@@H](CO)C(=O)NCC(=O)N[C@@H](C)C(=O)N1CCC[C@H]1C(=O)N1CCC[C@H]1C(=O)N1CCC[C@H]1C(=O)N[C@@H](CO)C(N)=O)C(C)C [Example 51] (H-Y[Aib]EGT[αMePhe(2-F)]ISDYSI[αMeL]LDKK([AEEA-AEEA-γGlu-C20 diacid])HQ[Aib]DFVE[4Pal]LLAGGPSSGAPPPS-NH2)
EC50 [1]: 24.7 nM
EC50 [2]: 308 nM
EC50 [3]: 0.0166 nM

CC[C@H](C)[C@H](NC(=O)[C@H](Cc1ccccc1)NC(=O)[C@@H](NC(=O)CNC(=O)[C@H](CCC(=O)O)NC(=O)C(C)(C)NC(=O)[C@@H](N)Cc1ccc(O)cc1)[C@@H](C)O)C(=O)N[C@@H](CO)C(=O)N[C@@H](CC(=O)O)C(=O)N[C@@H](Cc1ccc(O)cc1)C(=O)N[C@@H](CO)C(=O)N[C@H](C(=O)N[C@@](C)(CC(C)C)C(=O)N[C@@H](CC(C)C)C(=O)N[C@@H](CC(=O)O)C(=O)N[C@@H](CCCCN)C(=O)N[C@@H](CCCCNC(=O)COCCOCCNC(=O)COCCOCCNC(=O)CC[C@H](NC(=O)CCCCCCCCCCCCCCCCCCC(=O)O)C(=O)O)C(=O)N[C@@H](Cc1c[nH]cn1)C(=O)N[C@@H](CCC(N)=O)C(=O)NC(C)(C)C(=O)N[C@@H](CC(=O)O)C(=O)N[C@@H](Cc1ccccc1)C(=O)N[C@H](C(=O)N[C@@H](CCC(=O)O)C(=O)N[C@@H](Cc1c[nH]c2ccccc12)C(=O)N[C@@H](CC(C)C)C(=O)N[C@@H](CC(C)C)C(=O)N[C@@H](C)C(=O)NCC(=O)NCC(=O)N1CCC[C@H]1C(=O)N[C@@H](CO)C(=O)N[C@@H](CO)C(=O)NCC(=O)N[C@@H](C)C(=O)N1CCC[C@H]1C(=O)N1CCC[C@H]1C(=O)N1CCC[C@H]1C(=O)N[C@@H](CO)C(N)=O)C(C)C)[C@@H](C)CC [Example 54] (H-Y[Aib]EGTFISDYSI[αMeL]LDKK([AEEA-AEEA-γGlu-C20 diacid])HQ[Aib]DFVEWLLAGGPSSGAPPPS-NH2)
EC50 [1]: > 5000 nM
EC50 [2]: > 5000 nM
EC50 [3]: 0.054 nM

CC[C@H](C)[C@H](NC(=O)[C@H](CO)NC(=O)[C@H](Cc1ccc(O)cc1)NC(=O)[C@H](CC(=O)O)NC(=O)[C@H](CO)NC(=O)[C@@H](NC(=O)[C@](C)(Cc1ccccc1F)NC(=O)[C@@H](NC(=O)CNC(=O)[C@H](CCC(=O)O)NC(=O)[C@H](C)NC(=O)[C@@H](Cc1ccc(O)cc1)NC(C)=O)[C@@H](C)O)[C@@H](C)CC)C(=O)N[C@@H](C)C(=O)N[C@@H](CC(C)C)C(=O)N[C@@H](CC(=O)O)C(=O)N[C@@H](CCCCN)C(=O)N[C@@H](CCCCNC(=O)COCCOCCNC(=O)COCCOCCNC(=O)CC[C@H](NC(=O)CCCCCCCCCCCCCCCCCCC(=O)O)C(=O)O)C(=O)N[C@@H](Cc1c[nH]cn1)C(=O)N[C@@H](CCC(N)=O)C(=O)NC(C)(C)C(=O)N[C@@H](CCC(=O)O)C(=O)N[C@@H](Cc1ccccc1)C(=O)N[C@H](C(=O)N[C@@H](CC(N)=O)C(=O)N[C@@H](Cc1ccc(O)cc1)C(=O)N[C@@H](CC(C)C)C(=O)N[C@@H](CC(C)C)C(=O)N[C@@H](CCC(=O)O)C(=O)NCC(=O)NCC(=O)N1CCC[C@H]1C(=O)N[C@@H](CO)C(=O)N[C@@H](CO)C(=O)NCC(=O)N[C@@H](C)C(=O)N1CCC[C@H]1C(=O)N1CCC[C@H]1C(=O)N1CCC[C@H]1C(=O)N[C@@H](CO)C(N)=O)C(C)C [Example 33] (Ac-[dY]AEGT[αMePhe(2-F)]ISDYSIALDKK([AEEA-AEEA-γGlu-C20 diacid])HQ[Aib]EFVNYLLEGGPSSGAPPPS-NH2)
EC50 [1]: > 5000 nM
EC50 [2]: > 5000 nM
EC50 [3]: 0.0551 nM
